The text below walks through data of US10722514B2 (FLX Bio, Inc., priority 2017, dated 2020).

Read-outs that look alike come from different tables or passages of the source.

This test concerns the target T1, recombinant full-length USP7 (Homo sapiens, UniProt Q93009).
T1 construct: A 25 μl reaction volume containing recombinant full-length USP7 (62 pM)
The experiment in a line: USP7-mediated ubiquitin-rhodamine cleavage assay. Type of test: biochemical. As to conditions: recombinant full-length USP7 62 pM, ubiquitin-rhodamine 100 nM, 1 hour reaction at room temperature. In a few lines:
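After compound and enzyme (62 pM) sat together 30 min at RT, 100 nM fluorogenic ubiquitin-rhodamine substrate was added for 1 h protected from light. Acetic acid quenched the reaction prior to the fluorescence read.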

The mark [1] stands for this setting: 30-minute incubation with compound, read-out: Potency: USP7 IC50.
Where [2] appears, read: 30-minute pre-incubation, read-out: Potency (USP7 IC50).

T1 sequence (Q93009 whole entry): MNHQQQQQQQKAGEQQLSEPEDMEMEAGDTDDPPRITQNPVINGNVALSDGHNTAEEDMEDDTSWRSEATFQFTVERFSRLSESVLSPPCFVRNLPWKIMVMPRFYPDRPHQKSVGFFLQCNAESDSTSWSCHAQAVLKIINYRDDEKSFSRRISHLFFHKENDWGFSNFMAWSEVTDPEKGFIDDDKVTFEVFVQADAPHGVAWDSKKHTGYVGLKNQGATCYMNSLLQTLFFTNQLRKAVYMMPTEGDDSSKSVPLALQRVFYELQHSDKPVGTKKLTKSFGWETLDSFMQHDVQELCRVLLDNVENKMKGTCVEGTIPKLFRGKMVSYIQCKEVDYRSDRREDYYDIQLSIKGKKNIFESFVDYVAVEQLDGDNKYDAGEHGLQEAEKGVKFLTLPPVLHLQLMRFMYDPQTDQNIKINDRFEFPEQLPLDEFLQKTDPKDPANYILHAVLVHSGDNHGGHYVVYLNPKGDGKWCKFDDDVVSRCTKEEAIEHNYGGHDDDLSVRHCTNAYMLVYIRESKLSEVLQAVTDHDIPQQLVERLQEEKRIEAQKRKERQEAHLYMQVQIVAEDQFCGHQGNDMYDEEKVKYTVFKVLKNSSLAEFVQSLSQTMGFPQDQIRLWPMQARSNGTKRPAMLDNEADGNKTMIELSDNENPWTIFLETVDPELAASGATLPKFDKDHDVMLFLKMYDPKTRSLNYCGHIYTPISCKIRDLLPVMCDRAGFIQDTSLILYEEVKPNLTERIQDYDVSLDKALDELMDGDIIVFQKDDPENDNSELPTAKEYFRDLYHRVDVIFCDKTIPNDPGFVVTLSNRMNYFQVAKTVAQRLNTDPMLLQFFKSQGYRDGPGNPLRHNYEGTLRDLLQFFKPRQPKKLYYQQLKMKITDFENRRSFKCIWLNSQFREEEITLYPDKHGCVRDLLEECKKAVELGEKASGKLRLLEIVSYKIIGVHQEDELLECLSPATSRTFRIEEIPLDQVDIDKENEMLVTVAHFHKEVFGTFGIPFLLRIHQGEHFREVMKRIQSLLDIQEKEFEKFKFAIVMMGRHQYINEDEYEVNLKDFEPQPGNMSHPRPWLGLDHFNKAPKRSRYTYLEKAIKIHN

As usually defined, the IC50 is the concentration that gives 50% inhibition. For the molecule `Cc1cc(Cl)cc(-c2ccnc3cc(CN4C(=O)C5C(C4=O)C5(C)C)sc23)c1O[C@H]1CCNC[C@@H]1F` (stereo partly drawn) [Example 383, 3-[[7-[5-chloro-2-[[(3S,4S)-3-fluoro-4-piperidyl]oxy]-3-methyl-phenyl]thieno[3,2-b]pyridin-2-yl]methyl]-6,6-dimethyl-3-azabicyclo[3.1.0]hexane-2,4-dione; 2,2,2-trifluoroacetic acid], the half-inhibitory concentration (IC50) under setting [1] was less than 1000 nM. For `Cc1cc(Cl)cc(-c2ccnc3cc(CN4C(=O)CCC4=O)sc23)c1OC1CCCC(N)C1` (centres unmarked) [Example 427, 1-[[7-[2-(3-aminocyclohexoxy)-5-chloro-3-methyl-phenyl]thieno[3,2-b]pyridin-2-yl]methyl]pyrrolidine-2,5-dione; 2,2,2-trifluoroacetic acid], the concentration for half-maximal inhibition (IC50) under setting [2] was less than 1000 nM.

On to `Cc1cc(Cl)cc(-c2ncnc3cc(CN4C(=O)C5C(C4=O)C5(C)C)sc23)c1O[C@H]1CCCN[C@H]1C` (stereo partly drawn) [Example 359, 3-[[4-[5-chloro-3-methyl-2-[[(2S,3S)-2-methyl-3-piperidyl]oxy]phenyl]thieno[3,2-d]pyrimidin-6-yl]methyl]-6,6-dimethyl-3-azabicyclo[3.1.0]hexane-2,4-dione], for which, under setting [1], the IC50 is less than 1000 nM. On to `Cc1cc(Cl)cc(-c2ccnc3cc(CN4C(=O)CC(C)(C)CC4=O)sc23)c1OC1CCNCC1` [Example 258, 1-((7-(5-Chloro-3-methyl-2-(piperidin-4-yloxy)phenyl)thieno[3,2-b]pyridin-2-yl)methyl)-4,4-dimethylpiperidine-2,6-dione], for which the IC50 under setting [1] was less than 1000 nM.

As for `Cc1cc(C#N)cc(-c2ncnc3cc(CN4C(=O)c5ccccc5C4=O)sc23)c1O[C@@H]1CNC[C@@H]1F` [Example 110, 3-(6-((1,3-Dioxoisoindolin-2-yl)methyl)thieno[3,2-d]pyrimidin-4-yl)-4-(((3R,4S)-4-fluoropyrrolidin-3-yl)oxy)-5-methylbenzonitrile], under setting [1], the 50% inhibitory concentration (IC50) was less than 1000 nM. `Cc1cc(Cl)cc(-c2ccnc3cc(Cn4c(=O)ccn(CC(F)(F)F)c4=O)sc23)c1OC1CCNCC12CC2` (centres unmarked) [Example 617, 3-[[7-[2-(5-azaspiro[2.5]octan-8-yloxy)-5-chloro-3-methyl-phenyl]thieno[3,2-b]pyridin-2-yl]methyl]-1-(2,2,2-trifluoroethyl)pyrimidine-2,4-dione; 2,2,2-trifluoroacetic acid]: the IC50 under setting [2] is less than 1000 nM. Still for that read-out and setting: the figure for `Cc1cc(Cl)cc(-c2ccnc3cc(Cn4c(=O)c(F)cn(C(C)C)c4=O)sc23)c1O[C@H]1CCCNC1` [Example 547, 3-[[7-[5-chloro-3-methyl-2-[[(3S)-3-piperidyl]oxy]phenyl]thieno[3,2-b]pyridin-2-yl]methyl]-5-fluoro-1-isopropyl-pyrimidine-2,4-dione] is less than 1000 nM. With `CCC(O)c1cc2nccc(-c3cc(Cl)cc(C)c3OC3CCCCNC3)c2s1` (centres unmarked) [Example 265, 1-(7-(2-(Azepan-3-yloxy)-5-chloro-3-methylphenyl)thieno[3,2-b]pyridin-2-yl)propan-1-ol], under setting [1], the IC50 lay in the range of 1000 to 10000 nM. For the molecule `Cc1cc(Cl)cc(-c2ccnc3cc(Cn4c(=O)ccn(C)c4=O)sc23)c1O[C@H]1CCN(CCO)C[C@@H]1F` [Example 483, 3-[[7-[5-chloro-2-[[(3S,4S)-3-fluoro-1-(2-hydroxyethyl)-4-piperidyl]oxy]-3-methyl-phenyl]thieno[3,2-b]pyridin-2-yl]methyl]-1-methyl-pyrimidine-2,4-dione; 2,2,2-trifluoroacetic acid], under setting [2], the 50% inhibitory concentration (IC50) is less than 1000 nM. With `Cc1cc(Cl)cc(-c2ccnc3cc(Cn4c(=O)ccn(CC(F)(F)F)c4=O)sc23)c1OC1CCC(O)CC1` (centres unmarked) [Example 677, 3-[[7-[5-chloro-2-(4-hydroxycyclohexoxy)-3-methyl-phenyl]thieno[3,2-b]pyridin-2-yl]methyl]-1-(2,2,2-trifluoroethyl)pyrimidine-2,4-dione], the IC50 (30-minute incubation, read-out: Potency (USP7 IC50)) was less than 1000 nM. As for `Cc1cc(Cl)cc(-c2ccnc3cc(CN4C(=O)CCC4=O)sc23)c1O[C@@H]1CNC[C@@H]1N=[N+]=[N-]` [Example 83, 1-((7-(2-(((3R,4S)-4-Azidopyrrolidin-3-yl)oxy)-5-chloro-3-methylphenyl)thieno[3,2-b]pyridin-2-yl)methyl)pyrrolidine-2,5-dione], under setting [1], the IC50 is less than 1000 nM.

For the molecule `Cc1cc(Cl)cc(-c2ncnc3cc(Cn4c(=O)ccn(CC(F)(F)F)c4=O)sc23)c1OC1CNC1` [Example 587, 3-[[4-[2-(azetidin-3-yloxy)-5-chloro-3-methyl-phenyl]thieno[3,2-d]pyrimidin-6-yl]methyl]-1-(2,2,2-trifluoroethyl)pyrimidine-2,4-dione], under setting [2], the 50% inhibitory concentration (IC50) was less than 1000 nM. Regarding `C[C@H]1CNCC[C@H]1Oc1ccccc1-c1ccnc2cc(Cn3c(=O)ccn(CC(F)(F)F)c3=O)sc12` [Example 292, 3-[[7-[2-[[(3S,4R)-3-methyl-4-piperidyl]oxy]phenyl]thieno[3,2-b]pyridin-2-yl]methyl]-1-(2,2,2-trifluoroethyl)pyrimidine-2,4-dione], under setting [1], the IC50 was less than 1000 nM. Regarding `Cc1cc(Cl)cc(-c2ncnc3cc(Cn4c(=O)ccn(CC(F)(F)F)c4=O)sc23)c1O[C@H]1CCCN(C)C1` [Example 521, 3-[[4-[5-chloro-3-methyl-2-[[(3S)-1-methyl-3-piperidyl]oxy]phenyl]thieno[3,2-d]pyrimidin-6-yl]methyl]-1-(2,2,2-trifluoroethyl)pyrimidine-2,4-dione], the half-maximal inhibitory concentration (IC50) under setting [2] was less than 1000 nM. As for `Cc1cc(Cl)cc(-c2ccnc3cc(Cn4c(=O)ccn(C)c4=O)sc23)c1OC1CCCN(C(C)C)C1` (centres unmarked) [Example 505, 3-[[7-[5-chloro-2-[(1-isopropyl-3-piperidyl)oxy]-3-methyl-phenyl]thieno[3,2-b]pyridin-2-yl]methyl]-1-methyl-pyrimidine-2,4-dione], under setting [2], the half-inhibitory concentration (IC50) is less than 1000 nM. Regarding `Cc1cc(Cl)cc(-c2ccnc3cc(Cn4c(=O)ccn(CC(F)(F)F)c4=O)sc23)c1O[C@@H]1CNCC[C@H]1C` [Example 342, 3-[[7-[5-chloro-3-methyl-2-[[(3S,4R)-4-methyl-3-piperidyl]oxy]phenyl]thieno[3,2-b]pyridin-2-yl]methyl]-1-(2,2,2-trifluoroethyl)pyrimidine-2,4-dione], the 50% inhibitory concentration (IC50) under setting [1] is less than 1000 nM.

With `Cc1cc(Cl)cc(-c2ccnc3cc(CN4C(=O)NC(C)(C)C4=O)sc23)c1O[C@@H]1CNC[C@@H]1F` [Example 154, 3-((7-(5-Chloro-2-(((3R,4S)-4-fluoropyrrolidin-3-yl)oxy)-3-methylphenyl)thieno[3,2-b]pyridin-2-yl)methyl)-5,5-dimethylimidazolidine-2,4-dione], the half-maximal inhibitory concentration (IC50) under setting [1] is less than 1000 nM. Same read-out and setting: under `Cc1cc(Cl)cc(-c2ccnc3ccsc23)c1O[C@H]1CCCN(C)C1` [Example 240, (S)-7-(5-Chloro-3-methyl-2-((1-methylpiperidin-3-yl)oxy)phenyl)thieno[3,2-b]pyridine] stands more than 30000 nM.

As for `Cc1cc(Cl)cc(-c2ccnc3ccsc23)c1OC1CCN(C)CC1` [Example 187, 7-(5-Chloro-3-methyl-2-((1-methylpiperidin-4-yl)oxy)phenyl)thieno[3,2-b]pyridine], the IC50 under setting [1] was 10000 to 30000 nM. Still for that read-out and setting: the figure for `Cc1cc(Cl)cc(-c2ccnc3cc(CN4C(=O)CSC4=O)sc23)c1O[C@H]1CCCNC1` [Example 249, (S)-3-((7-(5-Chloro-3-methyl-2-(piperidin-3-yloxy)phenyl)thieno[3,2-b]pyridin-2-yl)methyl)thiazolidine-2,4-dione] is less than 1000 nM; for `CN[C@H]1CC[C@H](Oc2c(C)cc(Cl)cc2-c2ccnc3cc(CO)sc23)CC1` [Example 179, (7-(5-Chloro-3-methyl-2-(((1r,4r)-4-(methylamino)cyclohexyl)oxy)phenyl)thieno[3,2-b]pyridin-2-yl)methanol] it is 10000 to 30000 nM.

`Cc1cc(Cl)cc(-c2ncnc3cc(Cn4c(=O)ccn(CC(F)(F)F)c4=O)sc23)c1O[C@@H]1CCNC[C@@H]1C` [Example 584, 3-[[4-[5-chloro-3-methyl-2-[[(3S,4R)-3-methyl-4-piperidyl]oxy]phenyl]thieno[3,2-d]pyrimidin-6-yl]methyl]-1-(2,2,2-trifluoroethyl)pyrimidine-2,4-dione]: the half-inhibitory concentration (IC50) under setting [2] was less than 1000 nM. In the case of `Cc1cc(Cl)cc(-c2ccnc3cc(Cn4c(=O)ccn(CC(F)(F)F)c4=O)sc23)c1O[C@@H]1CCN(C)C[C@@H]1C` [Example 273, 3-((7-(5-Chloro-2-(((3S,4R)-1,3-dimethylpiperidin-4-yl)oxy)-3-methylphenyl)thieno[3,2-b]pyridin-2-yl)methyl)-1-(2,2,2-trifluoroethyl)pyrimidine-2,4(1H,3H)-dione], the IC50 under setting [1] is less than 1000 nM. For `Cc1cc(Cl)cc(-c2ccnc3cc(Cn4c(=O)ccn(C)c4=O)sc23)c1OC1CC2CC1N(CCO)C2` (centres unmarked) [Example 461, 3-[[7-[5-chloro-2-[[3-(2-hydroxyethyl)-3-azabicyclo[2.2.1]heptan-5-yl]oxy]-3-methyl-phenyl]thieno[3,2-b]pyridin-2-yl]methyl]-1-methyl-pyrimidine-2,4-dione], the 50% inhibitory concentration (IC50) under setting [2] is less than 1000 nM. Consider `Cc1cc(Cl)cc(-c2ncnc3cc(CN4C(=O)C5CCCC5C4=O)sc23)c1O[C@@H]1CNC[C@@H]1F` (stereo partly drawn) [Example 158, 2-((4-(5-Chloro-2-(((3R,4S)-4-fluoropyrrolidin-3-yl)oxy)-3-methylphenyl)thieno[3,2-d]pyrimidin-6-yl)methyl)tetrahydrocyclopenta[c]pyrrole-1,3(2H,3aH)-dione], for which, under setting [1], the half-inhibitory concentration (IC50) is less than 1000 nM. For `Cc1cc(Cl)cc(-c2ncnc3cc(Cn4c(=O)ccn(C(C)C)c4=O)sc23)c1O[C@H]1CCCNC1` [Example 489, 3-[[4-[5-chloro-3-methyl-2-[[(3S)-3-piperidyl]oxy]phenyl]thieno[3,2-d]pyrimidin-6-yl]methyl]-1-isopropyl-pyrimidine-2,4-dione], under setting [2], the IC50 is less than 1000 nM.
